SMILES strings stand for the structures. ≈ marks a conversion by molar mass, not a printed value.

As a reminder, the solubility is the concentration that dissolves in the medium under given conditions. Usually thermodynamic solubility stands for solubility found after equilibrating the solid with the medium. By pKa is commonly meant the pH at which an ionisable group is half protonated. Low readings indicate a stronger acid or weaker base, high ones a weaker acid or stronger base.

Data set [1] is described as follows: Stability (cleavage to parent drug) of prodrug suspensions in PBS pH 7.4. The format is physicochemical.
Description: Suspensions of the prodrugs in 67 mM phosphate buffer pH 7.4 (PBS) were prepared by adding 10 mL PBS to approximately 5 mg prodrug. The suspensions were kept unstirred at 37° C. in an incubator hood. At appropriate time intervals over 23 days, about 500 μL samples were taken and after filtration (disposable syringe filters), the solutions were analyzed immediately by HPLC for parent drug and remaining prodrug. Quantitation of parent drug and prodrug was done from peak area measurements in relations to those of standards analysed by HPLC at the same conditions.
From the observed relatively stable concentration of dissolved prodrugs measured in the suspensions after 8-9 day up to 23 days, the solubilities of the prodrugs (Sprodrug) were determined. In this time interval, the rate of appearance of parent drug was determined and an apparent pseudo-zero-order rate constant (k0) was obtained. By assuming that the dissolution rates were much faster than the conversion of the prodrugs to the parent drug, pseudo first-order rate constants (khyd) for cleavage of the prodrugs were calculated according to:
Data set [2] can be described thus: Hydrolysis of the prodrugs in 80% human plasma. The conditions noted are these: hydrolysis in 80% human plasma at 37° C.; read-out: t1/2 in plasma. It counts as in vitro ADME.
Description: At 37±0.5° C., the hydrolysis rate of the prodrugs was measured in 80% human plasma. An appropriate aliquot (20-100 μL) of 1 mg/ml prodrug solution in methanol was transferred to 5.0 ml of preheated plasma. At appropriate time intervals, 300 μl sample aliquots were withdrawn and transferred to 600 μl acetonitrile and mixed thoroughly. After centrifugation at 13500 rpm for 5 min, the supernatant was analyzed by HPLC for parent drug and remaining prodrug.
A short description of data set [3]: Solubility at acidic pH, with and without DMA cosolvent. It counts as physicochemical. The procedure:
A suspension of DPX-2-0007 (as hydrochloride salt) was formed by adding 30 mg to 4 mL demineralized water. After rotation of the suspension at 37° C. for 3 days, 1.0 mL sample was taken and after filtration (disposable syringe filters), the solution was diluted in methanol:water 1:1 and analyzed immediately by HPLC for prodrug. […] The pH in the solution was measured to 3.40. The following HPLC method was used: Merck Hitachi L 6200 pump connected to Merck Hitachi 4250 UV detector. Reversed phase chromatography was performed using a RP 18 Symmetry Shields® column (150×4.6 mm, 5 μm particles) equipped with a SecurityGuard precolumn (Phenomenex, Torrance, Calif., USA). […] The retention time of naproxen and DPX-2-0007 were 19 and 5.8 min, respectively.
A suspension of DPX-2-0006 was formed by adding 10 mg to 3 mL demineralized water, 0.05 mL 0.100 M HCl was added to obtain a pH of 3. After rotation of the suspension at 37° C. for 1 days, 0.5 mL sample was taken and after filtration (disposable syringe filters), the solution was diluted in methanol:water 1:1 and analyzed immediately by HPLC for prodrug. […] The HPLC method described in Example 29 was applied and the retention time of DPX-2-0006 was 14 min, respectively. N,N-dimethylacetamide (DMA) was added stepwise to the acidic suspension of DPX-2-0006 and the amount of DPX-2-000 dissolved in the presence of various volumes of DMA was determined after 1-3 days rotation at 37° C. as described above.

Data set [4] in a line: Precipitation on addition of acidic prodrug solution to phosphate buffer pH 7.4. It counts as physicochemical. The procedure: At appropriate time intervals, samples were withdrawn and centrifuged for 5 min at 13,000 rpm and the supernatant was analysed by HPLC for DPX-4-0001 and formed ketorolac. The HPLC method described in Example 26 was applied. […] A slight increase in the ketorolac concentration is the result of pH dependent hydrolysis of the prodrug bond (FIG. 3).
The pH in the suspension was measured to 7.0.

Data set [5] is described as follows: Solubility of the prodrugs in PBS (67 mM phosphate buffer pH 7.4). The conditions noted are these: for solubility: 67 mM phosphate buffer (PBS); for solubility / solubility thermodynamic: pH 7.4, aqueous buffer, thermodynamic from solid; for solubility thermodynamic: 67 mM phosphate buffer pH 7.4 (PBS), 37 °C; for Sprodrug ± SD: PBS (67 mM phosphate buffer pH 7.4), 37° C.
Description: The determination of the solubility of a prodrug at different pH values of interest according to the present invention is carried by adding excess solid prodrug to a container containing a buffer solution with well-defined pH. The mixture is rotated at constant temperature until an equilibrium between solid prodrug and prodrug in solution has established (that is until the prodrug concentration in the supernatant remains constant). At each measurement the pH of the supernatant is controlled and, if needed, adjusted to the desired pH.
Suspensions of the prodrugs in 67 mM phosphate buffer pH 7.4 (PBS) were prepared by adding 10 mL PBS to approximately 5 mg prodrug. The suspensions were kept unstirred at 37° C. in an incubator hood. At appropriate time intervals over 23 days, about 500 μL samples were taken and after filtration (disposable syringe filters), the solutions were analyzed immediately by HPLC for parent drug and remaining prodrug. Quantitation of parent drug and prodrug was done from peak area measurements in relations to those of standards analysed by HPLC at the same conditions. […] For the diclofenac and ibuprofen prodrugs, the following method was used: Merck Hitachi L 6000 pump connected to Merck Hitachi 4250 UV detector. Reversed phase chromatography was performed using a C18 Gemini® RP column (150×4.6 mm, 5 μm particles) (Phenomenex, Torrance, Calif., USA) equipped with a SecurityGuard precolumn (Phenomenex, Torrance, Calif., USA). The flow rate was set at 1 mL/min and the column effluent was monitored at 230 nm. The mobile phase consisted of 35% (v/v) acetonitrile and 65% (v/v) of 0.1% (v/v) phosphoric acid pH 3.2. The retention times varied in the range of 3 to 30 min.
From the observed relatively stable concentration of dissolved prodrugs measured in the suspensions after 8-9 day up to 23 days, the solubilities of the prodrugs (Sprodrug) were determined.

Data set [6] is described as follows: Stability of a suspension of prodrug in 80% human synovial fluid pH 7.4, formation of ketorolac. The conditions noted are these: after 21 hours. The format is in vitro ADME. The procedure: (§1) The stability of a suspension of DPX-4-0001 in 80% human synovial fluid pH 7.4 (SF) from arthritis patients was investigated at 37° C. The reaction was initiated by adding 5 ml preheated SF to 2 mg DPX-4-0001. At appropriate time intervals, 400 μl samples were taken and centrifuged for 5 min at 13.000 rpm and 200 μl of the supernatant was deproteinised with 400 μl acetonitrile. After centrifugation for 4 min at 13000 rpm, the supernatant was analysed by HPLC for DPX-4-0001 as well as formed ketorolac. The HPLC method described in Example 26 was applied.

Data set [7] can be described thus: Stability of a suspension of DPX-4-0001 in 67 mM phosphate buffer pH 7.4 (comparison to SF). It counts as physicochemical. The conditions noted are these: suspension in 67 mM phosphate buffer pH 7.4, 37° C. The procedure: as §1
For comparison, the stability of a suspension of DPX-4-0001 in 67 mM phosphate buffer pH 7.4 was investigated by the same procedure at 37° C. […] Since the synovial disappearance half-lives of small-molecule drugs are in the range 2-5 h, the concentration of the active agent in the joint space is determined by the prodrug properties (i) solubility, (ii) degree of protein binding, and (iii) rate of cleavage of the prodrug bond, as well as (iv) the administered dose.

The nature of another data set: pKa value. The format is physicochemical.

With `COc1ccc2cc(C(C)C(=O)OCCn3ccnc3-c3ccccc3)ccc2c1` (centres unmarked) [DPX-2-0007, 2-(2-phenyl-1H-imidazol-1-yl)ethyl 2-(6-methoxynaphthalen-2-yl)propanoate], the half-life at 0.5 mg/mL in data set [1] (67 mM phosphate buffer (PBS), PBS pH 7.4, 37° C., read-out: t1/2 in PBS (converted)) is 264 h. In addition, the “apparent pseudo-zero-order rate constant k0” value in data set [1] (appearance of parent drug in PBS pH 7.4 suspension, 37° C.) was determined as 1e-06 M/day. In addition, the “estimated pseudo first-order rate constant khyd” value in data set [1] (cleavage of prodrug in PBS pH 7.4, 37° C., calculated from k0 and Sprodrug) is 0.065 day⁻¹. Besides, in data set [2], the half-life was 1.03 h. In addition, the solubility at 3 days in data set [3] (demineralized water, 37 °C, pH 3.4, water, thermodynamic from solid, pH 3.4, hydrochloride salt in demineralized water, 3 days) amounted to 6800 µg/mL. In addition, the “fold increase in solubility at pH 3.4 compared to buffer pH 7.4 (PBS)” value in data set [3] (pH 3.4 vs pH 7.4) amounted to 1000 fold. Besides, in data set [4] (1.0 mL aqueous solution pH 3.4 added to 1.0 mL 67 mM phosphate buffer pH 7.4), the “precipitation after addition to buffer” value is reported as “a precipitation was immediately observed”. In data set [5], the solubility was determined as 7 µg/mL (≈ 17.5 µM), the thermodynamic solubility worked out at 16 ± 1 µM (≈ 6.41 µg/mL) and the “Sprodrug ± SD” value was 7 ± 1 µg/mL.

Turning to `CN(C)c1ccc(CCOC(=O)C2CCn3c(C(=O)c4ccccc4)ccc32)cc1` (centres unmarked) [DPX-4-0001, 4-(dimethylamino)phenethyl 5-benzoyl-2,3-dihydro-1H-pyrrolizine-1-carboxylate], the solubility in data set [3] (buffer solution, pH 2.02, aqueous buffer, thermodynamic from solid, pH 2.02, hydrochloride salt) worked out at 65 µg/mL. Also, the “fold decrease in solubility from pH 2.02 to pH 7.4” value in data set [3] (pH 2.02 vs pH 7.4) came to 1300 fold. Besides, in data set [6] (80% human synovial fluid pH 7.4, 37° C.), the “concentration of dissolved prodrug in SF” value is listed as “about 2.2×10^−5 M”. For the same compound, the “conversion of the added amount of prodrug” value in data set [6] (80% human synovial fluid, 37° C.) worked out at 28%. Also, in data set [7], the “degradation of prodrug (to ketorolac) in phosphate buffer” value is on record as “no significant degradation” and the “final prodrug concentration in phosphate buffer” value is “about 8×10^−7 M”. For the same compound, the “dissolved prodrug concentration after initial precipitation phase” value in data set [4] (67 mM phosphate buffer pH 7.4, over 25 h) was “low and fairly constant concentration”. For the same compound, in data set [4] (300 μl of solution in 0.01 M HCl added to 5 ml 67 mM phosphate buffer pH 7.4, no esterases), the “precipitation after addition to buffer” value is listed as “a precipitation process was observed”. Also, the pKa in “pKa value” is ~5.2. Further, in data set [5], the solubility is ~0.05 µg/mL (≈ 0.124 µM), the thermodynamic solubility was 0.1 ± 0.1 µM (≈ 0.0402 µg/mL) and the “Sprodrug ± SD” value came to 0.05 ± 0.03 µg/mL.

`CN(C)c1ccc(CCO)cc1` [IPU 1, 4-(hydroxyethyl)-N,N-dimethylaniline]: in “pKa value”, the pKa was ~5.2.

Values taken from patent US9809557B2 (priority 2011, dated 2017).
